In PMC9917184, “Synthesis and Biological Evaluation of Potential Oncoimmunomodulator Agents” (International Journal of Molecular Sciences, 2023):

Assays:
c-Myc = assay: Total c-Myc relative quantification by flow cytometry in cancer cell lines; format: cell-based, human; conditions: 24 h
Experimental: (§1) The effect of these triazole derivates on c-Myc and PD-L1 was measured in three different cancer cell lines (HT-29, MCF-7, A-549) by flow cytometry. Thus, cells were incubated for 24 h with the corresponding compound at a concentration of 100 μM. Dimethyl sulfoxide (DMSO)-treated cells were used as the negative control, and a PD-L1 inhibitor, BMS-8 [29, 31], was used as a reference control. After permeabilization and fixation, cells were treated with anti-PD-L1 conjugated to AlexaFluor®647 and anti-c-Myc conjugated to fluorescein to determine the amount of both targets related to the negative control. Table 1 show the results in terms of the percentage of the detected target in relation to the negative control. This assay was carried out on cancer cell lines HT-29, MCF-7, and A-549.
(§2) To study the effect of the compounds on every biological target in cancer cell lines, the compounds were used at a 100 µM dose.
(§3) For the assay, 10^5 cells per well were incubated for 24 h with the corresponding dose of the tested compound in a total volume of 500 μL of their growth media.
(§4) To detect total PD-L1 and c-Myc, after the cell treatments, they were collected and fixed with 4% in PBS paraformaldehyde. After fixation, a treatment with 0,5% in PBS Triton™ X-100 was performed, and finally, cells were stained with FITC Mouse monoclonal Anti-c-Myc (ab223913) and Alexa Fluor® 647 Rabbit monoclonal Anti-PD-L1 (ab215251).

MCF-7 [1] = assay: MCF-7 cell viability in co-culture with Jurkat T cells (flow cytometry count); format: cell-based, human; conditions: 24 h; for viability at 100 µM: Homo sapiens, MCF7, MCF-7/Jurkat T co-culture, IFN-γ stimulated, read-out: percentage of living MCF-7 cells relative to non-treated co-cultures; for inhibition rate of MCF-7 cell viability: co-cultured with Jurkat T cells, 100 μM
Experimental: The effect of the synthesized compounds on tumor cell proliferation in the presence of PD-1-expressing Jurkat T cells was also studied. This assay was carried out, as in the previous experiments, in the HT29, MCF7, and A549 cell lines (see Table 4). Interferon γ-stimulated cancer cells were treated for 24 h with the compounds at 100 μM in presence of Jurkat T cells. Then, cells were counted using flow cytometry. The percentage of living cells relative to non-treated co-cultures (control) was established for both cancer and immune cells in every co-culture.
(§5) To study the effect of the compounds on the cell viability in co-culture with Jurkat T cells or THP-1 cells, 10^5 or 2 × 10^5 of the corresponding cancer cells line per well were seeded and incubated for 24 h, then the medium was changed by one cell culture medium supplemented with IFN-γ (10 ng/mL; human, Invitrogen®) and containing 5 × 10^5 or 10^5 Jurkat T cells or THP-1, respectively, per well and 100 µM of the corresponding compound or DMSO for the […] control. After 24 h/48 h of incubation, supernatants were collected to determine Jurkat T or THP-1 living cells, and on the other hand, corresponding cancer cells were collected with trypsin. Both types of suspension cells were fixed with 4% in PBS paraformaldehyde and counted by flow cytometry.

PD-L1 [2] = biological target: T1, PD-L1 (Homo sapiens, UniProt Q9NZQ7); assay: Immunofluorescence microscopy of PD-L1 in MCF-7; format: cell-based; design: Alexa Fluor® 647 Rabbit monoclonal Anti-PD-L1 (ab215251); endogenous in cells; host or cells: MCF-7; conditions: MCF-7, 24 h of treatment
T1 sequence (Q9NZQ7 19-290): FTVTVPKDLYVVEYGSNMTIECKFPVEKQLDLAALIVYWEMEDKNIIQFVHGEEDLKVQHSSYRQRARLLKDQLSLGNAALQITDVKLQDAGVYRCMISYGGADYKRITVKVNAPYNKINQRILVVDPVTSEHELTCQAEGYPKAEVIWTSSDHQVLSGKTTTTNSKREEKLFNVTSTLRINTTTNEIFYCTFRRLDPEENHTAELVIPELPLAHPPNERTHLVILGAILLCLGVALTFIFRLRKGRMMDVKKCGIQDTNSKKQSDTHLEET
Source text: We also observed the effect of triazole derivatives 3, 5 and 7 on both targets in MCF-7 by immunofluorescence microscopy (see Figure 2). We stained both targets with anti-PD-L1 conjugated to AlexaFluor®647 (red in Figure 2), as well as anti-c-Myc conjugated to fluorescein (green in Figure 2), to determine the amount of both targets. The nucleus was stained with Hoechst (blue in Figure 2).
We observed that in the DMSO control, c-Myc was located in the nucleus of the cell and the nucleus membrane nearby, and PD-L1 was preferentially positioned in the membrane or cytosol, favoring the contact between surrounding cells.
For immunofluorescence microscopy of the microtubule network, […] cells were plated on cover glass and incubated with the selected compounds. Cells were then fixed in 4% formaldehyde (in PBS pH 7.4) for 20 min at room temperature and permeabilized with PBS-Triton X-100 0.5% for 1 min at room temperature. Direct immunostaining was carried out for 1 h at room temperature with FITC Mouse monoclonal Anti-c-Myc (ab223913) and Alexa Fluor® 647 Rabbit monoclonal Anti-PD-L1 (ab215251). Then, cells were washed in PBS, and cover glasses were mounted with a drop of ProLong® antifade solution (Invitrogen). The cytoskeleton was imaged by a confocal laser scanning microscope (CLSM) Leica SP5 with a Leica inverted microscope, equipped with 20x objective. Each image was recorded with the CLSM’s spectral mode selecting specific domains of the emission spectrum. The FITC fluorophore was excited at 488 nm with an argon laser, and its fluorescence emission was collected between 496 nm and 535 nm.

PD-L1 [3] = biological target: T1, PD-L1; assay: Total PD-L1 relative quantification by flow cytometry in cancer cell lines; format: cell-based; design: Alexa Fluor® 647 Rabbit monoclonal Anti-PD-L1 (ab215251); endogenous in cells; host or cells: HT-29; conditions: 24 h, total PD-L1 relative to negative control (DMSO)
Experimental: as §1, §2, §3, §4

IL-6 = IL-6 secretion to the media by ELISA; format: cell-based, human; conditions: 100 μM, 24 h, control = 100
Experimental: We determined the effect of these compounds on the secretion of IL-6 in monocultures of MCF-7 cells, to establish the effect on cancer cells in monocultures of immune cells THP-1 and in co-cultures of MCF-7 and THP-1 (1:5 proportion). Assays were performed by ELISA using cell media after treatments with selected compounds at 100 μM for 24 h.

MCF-7 [4] = assay: MCF-7 cell viability in co-culture with THP-1 cells; format: cell-based, human; conditions: for viability at 100 µM / inhibition at 100 µM: Homo sapiens; for viability at 100 µM: read-out: cancer cell viability (MCF-7); for inhibition at 100 µM: MCF7, read-out: cancer cell inhibition (MCF-7)
Experimental: The effect of the synthesized compounds on tumor cell proliferation in the presence of human monocytic leukemia cell line THP-1 was also studied. This assay was carried out using MCF-7 as the cancer cell line and different proportions of immune cells. Standard proportions for this assay were 1:5 cancer/immune, and we also carried out this assay using a 2:1 proportion of cancer cells as regards immune THP-1 cells. Assays were performed after 24 and 48 h of treatment and using 100 μM doses of selected compounds.
as §5

[5] = A-549, 100 µM, relative to negative control (DMSO)
[6] = HT-29, 100 µM, detected target relative to negative control (DMSO)
[7] = MCF-7, 100 µM, relative to negative control (DMSO)
[8] = MCF7, 24 h, 1:5 MCF-7/THP-1, 100 μM, 24 h, control = 100
[9] = MCF7, 24 h, 2:1 MCF-7/THP-1, 100 μM, 24 h, control = 100
[10] = MCF7, 48 h, 1:5 MCF-7/THP-1, 100 μM, 48 h, control = 100
[11] = MCF7, 48 h, 2:1 MCF-7/THP-1, 100 μM, 48 h, control = 100

Row | Compound | % c-Myc (c-Myc; [5]) [%] | % c-Myc (c-Myc; [6]) [%] | % c-Myc (c-Myc; [7]) [%] | viability at 100 µM (MCF-7 [1]) [%] | PD-L1 localisation (confocal images) (PD-L1 [2]) | remaining activity at 100 µM (PD-L1 [3]; A549, A-549, 100 µM) [%] | remaining activity at 100 µM (PD-L1 [3]; HT-29, 100 µM) [%] | remaining activity at 100 µM (PD-L1 [3]; MCF7, MCF-7, 100 µM) [%] | Percentage of secreted IL-6 to the media (IL-6; MCF7 + THP-1 co-culture (1:5)) [%] | Percentage of secreted IL-6 to the media (IL-6; MCF7 monoculture) [%] | Percentage of secreted IL-6 to the media (IL-6; THP-1 monoculture) [%] | viability at 100 µM (MCF-7 [4]; [8]) [%] | viability at 100 µM (MCF-7 [4]; [9]) [%] | viability at 100 µM (MCF-7 [4]; [10]) [%] | viability at 100 µM (MCF-7 [4]; [11]) [%] | inhibition at 100 µM (MCF-7 [4]; 2:1 MCF-7/THP-1, 100 μM, 48 h) [%] | inhibition rate of MCF-7 cell viability (MCF-7 [1]) | cancer cell viability (MCF-7) (MCF-7 [4]; 1:5 MCF-7/THP-1, 100 μM, 24 h, control = 100, 100 µM) [%]
1 | COc1ccc(C(OCCc2ccc(CCn3cc(-c4cccc(Br)c4)nn3)cc2)(c2ccccc2)c2ccc(OC)cc2)cc1 [Compound 5, 1-(4-(2-(bis(4-methoxyphenyl)(phenyl)methoxy)ethyl)phenethyl)-4-(3-bromophenyl)-1H-1,2,3-triazole] | 72 ± 9 | 66 ± 10 | 61 ± 11 | 37 ± 5 | accumulated in the interface of cells and in the nucleus | 70 ± 16 | 38 ± 1 | 87 ± 1 | 137 ± 24 | 73 ± 29 | 173 ± 24 | 52 ± 4 | 107 ± 3 | 42 ± 10 | 69 ± 10 | 30 | – | –
2 | COc1ccc(C(OCCc2ccc(CCn3cc(-c4ccccc4Br)nn3)cc2)(c2ccccc2)c2ccc(OC)cc2)cc1 [Compound 7, 1-(4-(2-(bis(4-methoxyphenyl)(phenyl)methoxy)ethyl)phenethyl)-4-(2-bromophenyl)-1H-1,2,3-triazole] | 67 ± 6 | 43 ± 7 | 51 ± 3 | 41 ± 4 | preferentially in cytosol | 86 ± 20 | 45 ± 7 | 80 ± 4 | 115 ± 4 | 91 ± 39 | 158 ± 11 | 42 ± 10 | 92 ± 11 | 41 ± 10 | 60 ± 13 | 40 | around 60% | –
3 | COc1ccc(C(OCCc2ccc(CCn3cc(-c4ccc(Br)cc4)nn3)cc2)(c2ccccc2)c2ccc(OC)cc2)cc1 [Compound 3, 1-(4-(2-(bis(4-methoxyphenyl)(phenyl)methoxy)ethyl)phenethyl)-4-(4-bromophenyl)-1H-1,2,3-triazole] | 66 ± 5 | 67 ± 8 | 65 ± 4 | 45 ± 4 | accumulates in the cytosol | 58 ± 10 | 47 ± 1 | 108 ± 13 | 156 ± 12 | 92 ± 4 | 183 ± 5 | 50 | 83 ± 9 | 28 ± 2 | 51 ± 17 | 50 | around 60% | 52 ± 7
4 | Cc1c(COc2ccc(CN3CCCCC3C(=O)O)cc2Br)cccc1-c1ccccc1 (stereo not shown) [BMS-8, reference compound] | 142 ± 8 | 119 ± 9 | 130 ± 12 | 57 ± 7 | located preferentially in the nucleus | 70 ± 8 | 68 ± 10 | 77 ± 3 | – | 41 ± 65 | – | 91 ± 30 | 100 ± 4 | 42 ± 5 | 58 ± 10 | – | – | –
